From US9757404B2, “Combination comprising an omega-3 fatty acid composition and an SGLT2 inhibitor” (AstraZeneca AB, priority 2014, dated 2017)

Columns and labels:
[1] = test system: diet-induced obese mouse model of fatty liver disease and NASH (DIO-NASH); assay: Mouse DIO-NASH model, 6 weeks treatment, hepatic pathology score (Example 3); format: in vivo, C57Bl/6J male mice; details: DIO-NASH mice; for NAFLD activity score, post-hoc test comparing the control group with the other groups (FIG. 1): Kruskal-Wallis p <0.01; for NAFLD activity score, post-hoc test comparing the control group with the other groups (FIG. 1) / fibrosis stage, Kruskal-Wallis test vs vehicle control (FIG. 2): p<0.05 regarded as significant; for fibrosis stage, Kruskal-Wallis test vs vehicle control (FIG. 2): p=0.4
Text: Effect of SGLT-2 Inhibitors and Epanova Alone or in Combination on Metabolic Parameters and Hepatic Pathology Score in a Mouse DIO-NASH Model
Determine the effect of 6 weeks treatment with the SGLT2 inhibitors dapagliflozin, ipragliflozin and canagliflozin and the Omega-3 compound Epanova alone or in combination on NAFLD Activity Score (NAS) including fibrosis stage (post versus pre-treatment) in a diet-induced obese mouse model of fatty liver disease and NASH (DIO-NASH).
At 5 weeks of age, C57Bl/6J male mice are purchased from JanVier, France. During the acclimatization and diet-induction period, the mice are group housed five per cage under a 12:12 light dark cycle (lights on from 0400-1600 h) at controlled temperature conditions (22±1° C.; 50±10% relative humidity). Throughout the study period, the mice have ad libitum access to NASH diet (DIO-NASH) (D09100301, Research Diet) (40% fat (18% trans-fat)), 40% carbohydrates (20% fructose) and 2% cholesterol). The animals are kept on the diet for 28 weeks before experimentation. In addition, a sub-set of animals are given normal chow (Altromin 1324, Brogaarden) to be included as a lean control group (LEAN-CHOW). During post-OP recovery and study period, animals will be single-housed. BW will be recorded once daily during the study period. 24 h food and water intake will be recorded once weekly during the study period.
During the DIO-NASH diet-induction period, BW will be monitored once monthly. After 25 weeks of diet-induction, a liver biopsy will be obtained for hepatic progression of fibrosis and steatosis evaluated by histochemical analysis, and subsequently NAFLD Activity Score including fibrosis stage and optional gene expression analysis (see below). At day −6, animals are stratified into treatment groups according to levels of fibrosis (% collagen) followed by randomization based on 1) liver fibrosis and 2) BW. In addition, liver steatosis (% lipid) will be analyzed. At day −5, animals are EchoMRI scanned for body composition analysis.
Dosing volume is 5-20 ml/kg (TBD). Route of administration is per oral (PO) dosing by gavage. Dosing frequency will be once daily (QD). Day 0 is the first day of dosing. Animals are dosed with compound(s) and vehicle between 2-4 PM. Animals are dosed for 42 days. Last dose will be administered the day before termination (study day 41).
A liver pre-biopsy and terminal liver tissue from the left lateral lobe will be collected for NAS and assessment of fibrosis stage by use of clinical criteria outlined by Kleiner and colleagues (Design and validation of a histological scoring system for nonalcoholic fatty liver disease, Kleiner et al, Hepatology 41; 2005). The NAS is the sum of steatosis, lobular inflammation and hepatocellular ballooning scores:
To assess hepatic steatosis, ballooning degeneration, fibrosis and inflammation sections are stained with H&E, Sirius Red, CK18 (ballooning) and Galectin-3 (macrophages), respectively) followed by analysis with Visiomorph software (Visiopharm, Copenhagen, Denmark). Biopsy assessment of hepatic steatosis, fibrosis or inflammation will be described as percentage of total area using a protocol designed for the specific purpose.
Results are presented as mean±SEM (standard error of the mean) unless otherwise stated. Statistical evaluation of the data is carried out using Student's unpaired t-test or two-way ANOVA for comparison of LEAN-CHOW control versus DIO-NASH Vehicle. For comparison of DIO-NASH groups, one-way and two-way ANOVA are being applied where appropriate. Post-hoc analysis (Dunnett/Bonferroni) in cases with statistical significance is performed (p<0.05 considered significant).

[2] = test system: diabetic population; details: cited from earlier work
[3] = test system: VCU (Virginia Commonwealth University) NASH mouse model; assay: VCU NASH mouse model, 4 weeks treatment, liver histology (Example 4); format: in vivo; details: VCU NASH mice, 4 weeks daily gavage; dapagliflozin 1 mg/kg/d, Epanova 600 mg/kg/d
Description: A further pre-clinical mouse study was carried out according to the Experimental plan described below:
Model: VCU (Virginia Commonwealth University) NASH mouse model; inbred C57bI6J/×129SI/SvlmJ given high fat, cholesterol, fructose and glucose diet for 16 weeks before starting pharmacological treatment.
Treatment: drugs will be administered by daily gavage. Gavage volume will not exceed 3 mL/Kg. vehicles will be olive oil and water. Epanova and dapagliflozin will be administered by daily gavage in one syringe.
Run-in: 16 weeks in high fat, cholesterol, fructose and glucose diet one week with vehicle gavage.
T=0 weeks: the mice will be matched based on body weight. The mice will be divided into 4 groups of 12 animals. Vehicle gavage for one week before commencing active treatment for 4 weeks.

[4] = biological target: human SGLT2 (hSGLT2) (Homo sapiens, UniProt P31639); details: stated property, no value given; cited from earlier work
Chain of human SGLT2 (hSGLT2) (P31639 whole entry): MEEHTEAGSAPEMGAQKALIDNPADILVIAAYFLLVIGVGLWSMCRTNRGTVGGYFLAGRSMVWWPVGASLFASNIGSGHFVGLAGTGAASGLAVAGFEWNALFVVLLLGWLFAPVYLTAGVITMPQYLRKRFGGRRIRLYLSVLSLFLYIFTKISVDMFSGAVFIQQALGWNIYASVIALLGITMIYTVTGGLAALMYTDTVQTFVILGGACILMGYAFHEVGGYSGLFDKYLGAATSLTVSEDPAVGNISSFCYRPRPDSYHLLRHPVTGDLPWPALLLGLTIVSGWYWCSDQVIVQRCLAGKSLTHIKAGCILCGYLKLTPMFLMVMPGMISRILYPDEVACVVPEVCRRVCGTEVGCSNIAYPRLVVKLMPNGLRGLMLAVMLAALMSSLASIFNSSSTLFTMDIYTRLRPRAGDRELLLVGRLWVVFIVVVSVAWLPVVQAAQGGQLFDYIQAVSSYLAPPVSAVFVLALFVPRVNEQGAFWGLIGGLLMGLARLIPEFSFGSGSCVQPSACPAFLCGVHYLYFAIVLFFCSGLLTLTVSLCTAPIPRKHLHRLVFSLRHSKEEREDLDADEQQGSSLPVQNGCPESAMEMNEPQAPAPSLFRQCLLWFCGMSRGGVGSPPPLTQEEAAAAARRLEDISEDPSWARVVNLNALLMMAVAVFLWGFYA

[5] = test system: two mouse models of NASH; assay: Overall summary of the two pre-clinical NASH mouse studies; format: in vivo
Text: We have investigated the effect of Epanova, dapagliflozin and the combination of the two components in two pre-clinical studies and a human clinical study, described in the Examples herein.
In the NASH mouse studies included in the present application, no changes in body weight, glucose or insulin levels or liver fat were observed, however the NASH mouse models used were not diabetic, but were obese and insulin resistant.

[6] = 6 weeks QD PO, dapagliflozin 1 mg/kg, Epanova 600 mg/kg, vs vehicle

Row | SMILES | NAFLD activity score, post-hoc test comparing the control group with the other groups (FIG. 1) [1] | fibrosis stage, Kruskal-Wallis test vs vehicle control (FIG. 2) [1] | liver fat content ([2]; diabetic population / diabetic patients) | body fat content ([2]; published studies (Kabir et al; Bolinder et al)) | NAFLD activity scores at the end of the study (primary effect variable) [1, 6] | fibrosis stage at the end of the study (primary effect variable) [1, 6] | fibrosis, comparing baseline and end-of study biopsies ([1]; 6 weeks QD PO, post versus pre-treatment) | overall effect on histology (NAFLD Activity Score, fibrosis stage) [3] | selectivity for SGLT2 relative to SGLT1 [4] | effect of treatment on NASH [5]
1 | Cc1ccc([C@@H]2O[C@H](CO)[C@@H](O)[C@H](O)[C@H]2O)cc1Cc1ccc(-c2ccc(F)cc2)s1 [Canagliflozin, canagliflozin] | not significant | non-significant |  |  |  |  |  |  |  | 
2 | CCOc1ccc(Cc2cc([C@@H]3O[C@H](CO)[C@@H](O)[C@H](O)[C@H]3O)ccc2Cl)cc1 [Dapagliflozin, dapagliflozin] | not significant | non-significant | tend to reduce liver fat content | reduce body fat content | No effects | No effects | reduced fibrosis | no effect | High selectivity for SGLT2 | did not show any effect
3 | OC[C@H]1O[C@@H](c2ccc(F)c(Cc3cc4ccccc4s3)c2)[C@H](O)[C@@H](O)[C@@H]1O [Ipragliflozin, ipragliflozin] | not significant | non-significant |  |  |  |  |  |  |  | 
